# From US4898858A, “Cephalosporin derivatives and antibiotics containing the same” (Meiji Seika Kaisha Ltd., priority 1985, dated 1990)
# Read-outs that look alike come from different tables or passages of the source.
# How the values were obtained:
# [1] = system: Pseudomonas aeruginosa E-2; assay: minimum growth-inhibitory concentration (MIC) in vitro; type: cell-based; settings: E2
# [2] = system: Pseudomonas aeruginosa GN-10362; assay: as above; type: cell-based; settings: GN10362
# [3] = system: Enterobacter Cloacae G-0008; assay: as above; type: cell-based
# Escherichia coli No.29 = assay: as above; type: cell-based
# [4] = system: Klebsiella pneumoniae GN-69; assay: as above; type: cell-based
# [5] = system: Klebsiella pneumoniae GN-118; assay: as above; type: cell-based; settings: GN118
# Proteus rettgeri J-0026 = assay: as above; type: cell-based; settings: Providencia rettgeri, J0026
# Proteus rettgeri GN-624 = assay: as above; type: cell-based; settings: Providencia rettgeri, GN624
# [6] = system: Serratia marcescens GN-10857; assay: as above; type: cell-based; settings: GN10857
# Escherichia coli ML1410 = assay: as above; type: cell-based
# Proteus morganii 1510 = assay: as above; type: cell-based; settings: Morganella morganii
# [7] = system: Enterobacter Cloacae G-0005; assay: as above; type: cell-based
# [8] = system: Pseudomonas aeruginosa MB-3833; assay: as above; type: cell-based; settings: MB3833
# Proteus vulgais GN-76 = assay: as above; type: cell-based
# [9] = system: Salmonella enteritidis No.11; assay: as above; type: cell-based; settings: Salmonella enterica
# [10] = system: Escherichia coli NIHJ JC-2; assay: as above; type: cell-based
# [11] = system: Serratia marcescens GN-629; assay: as above; type: cell-based; settings: GN629
# [12] = system: Staphylococcus aureus 606; assay: as above; type: cell-based
# [13] = system: Staphylococcus aureus 606 E-25; assay: as above; type: cell-based; settings: 606E25
# [14] = system: Streptocuccus faecalis W-75; assay: as above; type: cell-based
# [15] = system: Staphylococcus aureus 209P JC-1; assay: as above; type: cell-based
# [16] = system: Proteus vulgais GN-76/C-1; assay: as above; settings: for MIC: Proteus vulgaris, GN76, read-out: MIC-value
# [17] = system: Salmonella typhimurium LT-2; assay: as above; type: cell-based; settings: Salmonella enterica
# Pseudomonas aeniginosa = assay: MIC, comparison of the compounds of the present invention and the relevant compounds; type: cell-based; settings: Table 2, strain not given, by substituent B
# [18] = GN69, Klebsiella pneumoniae GN-69, in vitro, read-out: MIC-value
# [19] = NIHJJC2, Escherichia coli NIHJ JC-2, in vitro, read-out: MIC-value
MIC [1],MIC [2],MIC [3],MIC (Escherichia coli No.29),MIC [5],MIC (Proteus rettgeri J-0026),MIC (Proteus rettgeri GN-624),MIC [6],MIC (Escherichia coli ML1410),MIC (Proteus morganii 1510),MIC [7],MIC [8],MIC (Proteus vulgais GN-76),MIC [9],MIC [11],MIC [12],MIC [13],MIC [14],MIC [16],MIC [17],SMILES,other results
1.56 µg/mL,3.13 µg/mL,0.1 µg/mL,0.1 µg/mL,0.05 µg/mL,0.2 µg/mL,< 0.025 µg/mL,1.56 µg/mL,0.1 µg/mL,0.78 µg/mL,0.2 µg/mL,3.13 µg/mL,0.1 µg/mL,< 0.025 µg/mL,0.39 µg/mL,6.25 µg/mL,6.25 µg/mL,6.25 µg/mL,0.1 µg/mL,0.05 µg/mL,"CC[n+]1ccc(SCC2=C(C(=O)[O-])N3C(=O)[C@@H](NC(=O)/C(=N\O[C@H](C)C(=O)O)c4csc(N)n4)[C@H]3SC2)cc1 [Example 9, (6R,7R)-7-[(Z)-2-(2-Aminothiazol-4-yl)-2-{(1R)-carboxyethoxyimino}acetamid]-3-(1-ethylpyridinium-4-ylthiomethyl)-ceph-3-em-4-carboxylate]","MIC [4, 18]: 0.05 µg/mL; MIC [10, 19]: 0.1 µg/mL; MIC [15]: 3.13 µg/mL"
1.56 µg/mL,1.56 µg/mL,0.1 µg/mL,0.1 µg/mL,< 0.025 µg/mL,0.1 µg/mL,0.05 µg/mL,0.78 µg/mL,0.1 µg/mL,1.56 µg/mL,0.05 µg/mL,1.56 µg/mL,< 0.025 µg/mL,< 0.025 µg/mL,0.2 µg/mL,3.13 µg/mL,3.13 µg/mL,1.56 µg/mL,0.05 µg/mL,< 0.025 µg/mL,"C[C@H](O/N=C(\C(=O)N[C@@H]1C(=O)N2C(C(=O)[O-])=C(CSc3cc[n+](CCF)cc3)CS[C@H]12)c1csc(N)n1)C(=O)O [Example 3, (6R,7R)-7-[(Z)-2-(2-Aminothiazol-4-yl)-2-{(1S)-carboxyethoxyimino}acetamido]-3-[{1-(2-fluoroethyl)pyridinium}-4-ylthiomethyl]-ceph-3-em-4-carboxylate]","MIC [4, 18]: 0.05 µg/mL; MIC [10, 19]: 0.1 µg/mL; MIC [15]: 1.56 µg/mL"
0.78 µg/mL,–,0.05 µg/mL,–,< 0.025 µg/mL,0.05 µg/mL,0.05 µg/mL,0.39 µg/mL,0.1 µg/mL,0.78 µg/mL,0.05 µg/mL,0.78 µg/mL,0.025 µg/mL,< 0.025 µg/mL,0.1 µg/mL,1.56 µg/mL,3.13 µg/mL,0.78 µg/mL,0.05 µg/mL,< 0.025 µg/mL,CC[n+]1ccc(SCC2=C(C(=O)[O-])N3C(=O)[C@@H](NC(=O)/C(=N\O[C@@H](C)C(=O)O)c4csc(N)n4)[C@H]3SC2)cc1 [Example 8],"MIC [4, 18]: < 0.025 µg/mL; MIC [10, 19]: 0.1 µg/mL"
3.13 µg/mL,3.13 µg/mL,0.2 µg/mL,0.1 µg/mL,0.05 µg/mL,0.2 µg/mL,0.1 µg/mL,3.13 µg/mL,0.2 µg/mL,1.56 µg/mL,0.2 µg/mL,3.13 µg/mL,0.1 µg/mL,< 0.025 µg/mL,0.39 µg/mL,6.25 µg/mL,6.25 µg/mL,3.13 µg/mL,0.1 µg/mL,0.05 µg/mL,"C[C@@H](O/N=C(\C(=O)N[C@@H]1C(=O)N2C(C(=O)[O-])=C(CSc3cc[n+](CCF)cc3)CS[C@H]12)c1csc(N)n1)C(=O)O [Example 2, (6R,7R)-7-[(Z)-2-(2-Aminothiazol-4-yl)-2-{(1R)-carboxyethoxyimino}acetamido]-3-[{1-(2-fluoroethyl)pyridinium}-4-ylthiomethyl]-ceph-3-em-4-carboxylate]","MIC [4, 18]: 0.05 µg/mL; MIC [10, 19]: 0.1 µg/mL; MIC [15]: 3.13 µg/mL"

# Further lines, the compound ahead of its results:
SMILES,MIC [1],MIC [2],MIC [3],MIC (Escherichia coli No.29),MIC [5],MIC (Proteus rettgeri J-0026),MIC (Proteus rettgeri GN-624),MIC [6],MIC (Escherichia coli ML1410),MIC (Proteus morganii 1510),MIC [7],MIC [8],MIC (Proteus vulgais GN-76),MIC [9],MIC [11],MIC [12],MIC [13],MIC [14],MIC [16],MIC [17],other results
"CC(O/N=C(\C(=O)N[C@@H]1C(=O)N2C(C(=O)[O-])=C(CSc3cc[n+](CCF)cc3)CS[C@H]12)c1csc(N)n1)C(=O)O (stereo partly drawn) [Example 1, (6R,7R)-7-{(Z)-2-(2-Aminothiazol-4-yl)-2-(1-carboxyethoxyimino)acetamido}-3-[{1-(2-fluoroethyl)pyridinium}-4-ylthiomethyl]-ceph-3-em-4-carboxylate]",1.56 µg/mL,1.56 µg/mL,0.1 µg/mL,0.1 µg/mL,< 0.025 µg/mL,0.1 µg/mL,0.05 µg/mL,0.78 µg/mL,0.1 µg/mL,1.56 µg/mL,0.05 µg/mL,1.56 µg/mL,0.05 µg/mL,< 0.025 µg/mL,0.1 µg/mL,3.13 µg/mL,3.13 µg/mL,3.13 µg/mL,0.1 µg/mL,< 0.025 µg/mL,"MIC [4, 18]: < 0.025 µg/mL; MIC [10, 19]: 0.1 µg/mL; MIC [15]: 3.13 µg/mL"
Nc1nc(/C(=N/OC(C(=O)O)C2CCCCC2)C(=O)N[C@@H]2C(=O)N3C(C(=O)[O-])=C(CSc4cc[n+](CCF)cc4)CS[C@H]23)cs1 (some centres unmarked) [Example 5],12.5 µg/mL,12.5 µg/mL,3.13 µg/mL,3.13 µg/mL,1.56 µg/mL,3.13 µg/mL,0.39 µg/mL,6.25 µg/mL,3.13 µg/mL,6.25 µg/mL,3.13 µg/mL,12.5 µg/mL,0.78 µg/mL,0.2 µg/mL,6.25 µg/mL,3.13 µg/mL,3.13 µg/mL,3.13 µg/mL,0.78 µg/mL,3.13 µg/mL,"MIC [4, 18]: 1.56 µg/mL; MIC [10, 19]: 3.13 µg/mL; MIC [15]: 1.56 µg/mL"
Nc1nc(/C(=N/OC(CF)C(=O)O)C(=O)N[C@@H]2C(=O)N3C(C(=O)[O-])=C(CSc4cc[n+](CCF)cc4)CS[C@H]23)cs1 (some centres unmarked) [Example 6],1.56 µg/mL,3.13 µg/mL,0.1 µg/mL,0.1 µg/mL,< 0.025 µg/mL,0.2 µg/mL,< 0.025 µg/mL,1.56 µg/mL,0.1 µg/mL,0.78 µg/mL,0.05 µg/mL,1.56 µg/mL,0.05 µg/mL,0.05 µg/mL,0.2 µg/mL,3.13 µg/mL,3.13 µg/mL,3.13 µg/mL,0.1 µg/mL,< 0.025 µg/mL,"MIC ([4]; Klebsiella pneumoniae, GN69, read-out: MIC-value): < 0.025 µg/mL; MIC ([10]; Escherichia coli, NIHJJC2, read-out: MIC-value): 0.05 µg/mL; MIC [15]: 1.56 µg/mL"
"C[C@H](O/N=C(\C(=O)N[C@@H]1C(=O)N2C(C(=O)[O-])=C(CSc3cc[n+](C)cc3)CS[C@H]12)c1csc(N)n1)C(=O)O [Example 7, (6R,7R)-7-[(Z)-2-(2-Aminothiazol-4-yl)-2-{(1S)-carboxyethoxyimino}acetamid]-3-(1-methylpyridinium-4-ylthiomethyl)-ceph-3-em-4-carboxylate]",0.78 µg/mL,0.78 µg/mL,0.1 µg/mL,0.1 µg/mL,< 0.025 µg/mL,0.1 µg/mL,< 0.025 µg/mL,0.39 µg/mL,0.1 µg/mL,1.56 µg/mL,0.05 µg/mL,0.78 µg/mL,0.025 µg/mL,< 0.025 µg/mL,0.1 µg/mL,3.13 µg/mL,3.13 µg/mL,1.56 µg/mL,0.05 µg/mL,< 0.025 µg/mL,"MIC [4, 18]: < 0.025 µg/mL; MIC [10, 19]: 0.1 µg/mL; MIC [15]: 1.56 µg/mL"
C[C@H](O/N=C(\C(=O)N[C@@H]1C(=O)N2C(C(=O)[O-])=C(CSc3cc[n+](C)cc3)CS[C@H]12)c1csc(N)n1)C(=O)O [drawing 15],–,–,–,–,–,–,–,–,–,–,–,–,–,–,–,–,–,–,–,–,"MIC (Pseudomonas aeniginosa): 0.78 µg/mL; MIC-value ([16]; Table 2, Proteus vulgaris GN76/C-1, by substituent B): 0.05 µg/mL"
CCC(O/N=C(\C(=O)N[C@@H]1C(=O)N2C(C(=O)[O-])=C(CSc3cc[n+](CCF)cc3)CS[C@H]12)c1csc(N)n1)C(=O)O (some centres unmarked) [Example 4],3.13 µg/mL,3.13 µg/mL,0.39 µg/mL,0.39 µg/mL,0.1 µg/mL,0.78 µg/mL,0.05 µg/mL,3.13 µg/mL,0.39 µg/mL,3.13 µg/mL,0.39 µg/mL,3.13 µg/mL,0.05 µg/mL,< 0.025 µg/mL,0.78 µg/mL,6.25 µg/mL,6.25 µg/mL,6.25 µg/mL,0.2 µg/mL,0.2 µg/mL,"MIC [4, 18]: 0.1 µg/mL; MIC [10, 19]: 0.39 µg/mL; MIC [15]: 6.25 µg/mL"
